Patent US11654140B2, “Treatment of ocular inflammatory diseases using laquinimod” (Active Biotech AB, priority 2012, dated 2023)

Columns and labels:
[1] = tested on: ovalbumin-induced allergic conjunctivitis (late phase reaction) in mice; assay: Ocular active anaphylaxis (late phase) in mice, ovalbumin model, eosinophil infiltration into conjunctiva (Example 2); type: in vivo; conditions: for Eosinophil density, mean / Inhibition of Eosinophil Infiltration vs. Vehicle: 10 μl topical right eye four times daily Day 8-17, five times Day 18; for Eosinophil density, mean: conjunctiva Day 19
Experimental: Laquinimod solutions were prepared as in Example 1.
Forty (40) Balb/c albino mice were randomly allocated to five groups of eight animals each. Only the right eyes of each animal were used in this study.
On Days 1 and 8, animals in groups 2-5 were injected once intraperitoneally with 0.2 ml of a mixture comprising 5 μg/ml ovalbumin and 15 mg/ml alum in phosphate buffered saline (PBS; pH 7.3-7.4). Animals of group 1 received a mock sensitization comprising 0.2 ml intraperitoneal injection of PBS only on Days 1 and 8.
Laquinimod or controls were delivered into the right conjunctival sac as follows: • From Day 8 to Day 17, animals were dosed four times daily with 10 μl of either 1% laquinimod, 5% laquinimod, or vehicle. Reference Group 5 was dosed with the same regimen, but starting on Day 15. (**Note: Due to a technical error, four mice from Group 1 (negative vehicle) were not dosed on Day 8 and one mouse from Group 1 (negative vehicle) was not dosed on Day 11. This was deemed not to be a critical error that would affect the outcome of the study so the study was continued). • On Day 18, animals were dosed five times during a three hour period before the second challenge (3 h, 2 h, 1 h, 40 min., and 10 min.).
Allergic conjunctivitis was achieved by a single administration on Day 15 (30 minutes before the treatment regimen) and Day 18 (2 hours after 40 minute treatment) with 10 μl of 5 mg/ml ovalbumin in PBS, pH 7.3-7.4 to the right eyes of all […] in groups 2 through 5. Group 1 was mock challenged with 10 μl PBS only.
On Day 19 (12 h to 24 h after challenge), […] were euthanized using an intraperitoneal injection of pentobarbital. Right eyelids and eyeballs were immediately fixed in Bouin-Hollande solution for 24 hours and embedded in paraffin wax. Fixed samples were cut vertically into 5 to 7 micrometer thick sections with a microtome in two different regions—the bulbar conjunctiva and the fornix and palpebral conjunctiva. Three sections per region were selected for analysis based on the quality of the sectioning. The selected sections were stained with May-Grunwald/acid Giemsa.
After staining, digital images using 200× magnifications were taken with a Leica light microscope. Total area of subconjunctival tissue was measured automatically using the Leica Application Suite (LAS) software. Eosinophils were counted throughout the whole conjunctiva in each of the three sections per sample. The density per square millimeter of eosinophils stained with acid Giemsa was calculated for each specimen. The average cell density per eye was calculated from the results of the […] sections.

[2] = tested on: subject suffering from allergic conjunctivitis; assay: Laquinimod for treating allergic conjunctivitis (Example 8); type: in vivo; conditions: 0.2 mg-0.5 mg laquinimod/day
Experimental: In the examples 4-9 below, the administration of the composition is once daily. The administration can be repeated daily for a period of one, two, three or four days, up to 14 days, or longer as necessary.
A laquinimod composition as described herein is administered to a subject suffering from allergic conjunctivitis at 0.2 mg-0.5 mg laquinimod/day. The administration of the composition is effective to treat the subject suffering from allergic conjunctivitis. The administration of the composition is also effective to reduce intraocular inflammation in the subject. The administration of the composition is also effective to inhibit late ocular anaphylaxis in the subject. The administration of the composition is also effective reduce eosinophil infiltration into the conjunctiva of the subject.

CCN(C(=O)c1c(O)c2c(Cl)cccc2n(C)c1=O)c1ccccc1 [Laquinimod, laquinimod]
Eosinophil density, mean ([1]; 1% Laquinimod): 117.5 cells/mm2 | Inhibition of Eosinophil Infiltration vs. Vehicle ([1]; 1% Laquinimod, not statistically significant): 48% | Inhibition of Eosinophil Infiltration vs. Vehicle ([1]; 1% Laquinimod, not statistically significant, listed as laquinimod): 48% | Eosinophil density, mean ([1]; 5% Laquinimod): 72.5 cells/mm2 | Inhibition of Eosinophil Infiltration vs. Vehicle ([1]; 5% Laquinimod, p 0.0023): 68% | Inhibition of Eosinophil Infiltration vs. Vehicle ([1]; 5% Laquinimod, p 0.0023, listed as laquinimod): 68% | late ocular anaphylaxis reaction ([1]; multiple topical administrations, statistically significant effect at a dose of 5%): inhibited the late ocular anaphylaxis reaction | treat the subject suffering from allergic conjunctivitis [2]: effective | inhibit late ocular anaphylaxis in the subject ([2]; allergic conjunctivitis): effective | reduce eosinophil infiltration into the conjunctiva of the subject ([2]; allergic conjunctivitis): effective | reduce intraocular inflammation in the subject ([2]; allergic conjunctivitis): effective
